Like-named read-outs stand apart in the source and are kept apart here.
Key:
TRKA kinase = TRKA kinase (Homo sapiens, UniProt P04629); experiment: Biochemical kinase analysis (HTRF), TRKA; conditions: 23° C., read-out: Kinase IC50 (nM) TRK A
Description: (§1) Inhibition of TRKA, TRKB, TRKC kinases can be measured by HTRF ([…]) method. The reaction was performed in a 384-well plate at 23° C. with a volume of 20 μL. TRKA TRKB or TRKC kinase were mixed with pre-formulated and diluted compounds of different concentrations for ten minutes in duplicate for each concentration, wherein 11 concentrations made with a 3-fold gradient dilution from the starting concentration of 300 nM were made and the final concentration of DMSO was 2%. The corresponding substrate and ATP were added thereto, and reacted at room temperature for 20 minutes (both a negative and a positive control were set: negative control is blank control, positive control is Entrectinib). After the reaction, detection reagent was added thereto (reagent in HTRF Kinase TK kit), and after incubation at room temperature for 30 minutes, detection was carried out by PerkinElmer Envision microplate reader for determining enzyme activity in the presence of the compounds of the present disclosure at various concentrations, and the inhibitory activity of different concentrations of compounds against enzyme activity was calculated. After that, in accordance with four-factors function and Graphpad 5.0 software, inhibitory activity on enzyme activity under different concentrations of compounds was fitted and IC50 values were calculated.

TRKB kinase = TRKB kinase (Homo sapiens, UniProt Q16620); experiment: Biochemical kinase analysis (HTRF), TRKB; conditions: 23° C., read-out: Kinase IC50 (nM) TRK B
Sequence of TRKB kinase (Q16620 32-822): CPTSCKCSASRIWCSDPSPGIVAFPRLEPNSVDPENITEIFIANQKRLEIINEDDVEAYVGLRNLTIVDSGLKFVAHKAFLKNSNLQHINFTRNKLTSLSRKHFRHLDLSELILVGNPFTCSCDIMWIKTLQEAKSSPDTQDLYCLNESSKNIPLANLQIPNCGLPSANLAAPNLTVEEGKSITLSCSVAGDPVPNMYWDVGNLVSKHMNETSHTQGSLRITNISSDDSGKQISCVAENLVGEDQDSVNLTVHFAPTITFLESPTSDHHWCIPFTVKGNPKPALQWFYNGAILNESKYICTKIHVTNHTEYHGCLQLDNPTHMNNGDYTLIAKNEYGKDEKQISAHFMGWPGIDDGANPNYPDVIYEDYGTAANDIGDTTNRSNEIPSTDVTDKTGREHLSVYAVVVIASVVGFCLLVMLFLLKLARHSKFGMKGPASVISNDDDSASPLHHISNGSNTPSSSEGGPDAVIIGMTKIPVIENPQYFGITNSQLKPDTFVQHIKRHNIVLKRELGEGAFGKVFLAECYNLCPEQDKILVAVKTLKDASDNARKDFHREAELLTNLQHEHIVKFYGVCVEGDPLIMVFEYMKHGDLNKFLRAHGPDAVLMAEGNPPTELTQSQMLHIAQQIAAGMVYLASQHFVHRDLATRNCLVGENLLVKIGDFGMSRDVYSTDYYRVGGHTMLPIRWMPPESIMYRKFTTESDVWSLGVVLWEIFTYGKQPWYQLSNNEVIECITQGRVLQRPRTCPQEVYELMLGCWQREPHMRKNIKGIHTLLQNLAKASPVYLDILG
Description: as §1

TRKC kinase = TRKC kinase (Homo sapiens, UniProt Q16288); experiment: Biochemical kinase analysis (HTRF), TRKC; conditions: 23° C., read-out: Kinase IC50 (nM) TRK C
Sequence of TRKC kinase (Q16288 32-839): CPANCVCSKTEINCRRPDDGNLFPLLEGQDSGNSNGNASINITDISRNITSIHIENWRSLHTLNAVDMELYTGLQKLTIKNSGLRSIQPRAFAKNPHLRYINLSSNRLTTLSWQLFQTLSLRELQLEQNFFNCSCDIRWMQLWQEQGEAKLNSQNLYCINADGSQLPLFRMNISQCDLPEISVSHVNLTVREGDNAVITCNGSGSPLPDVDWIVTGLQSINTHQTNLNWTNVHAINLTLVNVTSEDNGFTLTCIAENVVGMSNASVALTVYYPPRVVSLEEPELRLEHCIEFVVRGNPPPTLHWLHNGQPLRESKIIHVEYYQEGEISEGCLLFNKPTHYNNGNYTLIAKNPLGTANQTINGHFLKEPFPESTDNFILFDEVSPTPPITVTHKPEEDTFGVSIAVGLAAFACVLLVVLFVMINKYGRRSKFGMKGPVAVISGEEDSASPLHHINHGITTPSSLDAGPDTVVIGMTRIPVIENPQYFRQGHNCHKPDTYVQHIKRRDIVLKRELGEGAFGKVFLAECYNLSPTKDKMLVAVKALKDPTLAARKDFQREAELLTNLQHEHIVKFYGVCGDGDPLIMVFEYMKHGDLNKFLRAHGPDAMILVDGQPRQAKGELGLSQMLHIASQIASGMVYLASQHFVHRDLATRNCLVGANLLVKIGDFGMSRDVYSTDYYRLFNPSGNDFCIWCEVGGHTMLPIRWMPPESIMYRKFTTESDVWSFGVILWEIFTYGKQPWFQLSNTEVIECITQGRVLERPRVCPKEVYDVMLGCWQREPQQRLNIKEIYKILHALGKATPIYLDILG
Description: as §1

KM12 cell line = experiment: KM12 cell proliferation analysis (CellTiter-Glo); format: cell-based; conditions: Homo sapiens, 72 h
Description: The CGT method was used to detect the in vitro anti-proliferative activity of the compounds of the present disclosure on tumor cells cultured in vitro. The KM12 cell line was maintained in RPMI-1640 medium containing 10% fetal bovine serum and antibiotics, the cells in the logarithmic growth phase were harvested and planted in a 96-well plate. The plate was incubated in an incubator at 37° C., containing 5% carbon dioxide gas overnight. After the test compounds were dissolved in DMSO, a 3-fold concentration gradient dilution with 9 compound concentrations was made. Pre-prepared compounds of different concentrations were transferred to the cell plate in triplicate for each concentration, and continue culturing for 72 h. The final concentration of DMSO in the system was 0.1%, and the initial concentration of the test compound was 300 nM.
CellTiter-Glo reagent was added to the cell plate, and incubated at room temperature for 30 minutes to stabilize the optical signal. Detection was carried out by PerkinElmer Envision microplate reader for determining the inhibitory activity of the compound of the present disclosure at various concentrations on cell proliferation. The inhibitory activity of compounds at different concentrations on cell proliferation was fitted according to Graphpad 5.0 software, and IC50 values were calculated.

[1] = Pharmacokinetic experiment in rats; format: in vivo, Sprague-Dawley rats; parameters: Cl_pred (L/kg): unit not given here; conditions: rat; for AUC(0-t) / Cmax / Tmax / half-life / AUC(0-inf) / MRT inf / bioavailability: male, Sprague-Dawley, plasma; for AUC(0-inf): read-out: AUCINF_pred; for MRT inf: read-out: MRTINF_pred; for bioavailability: PO 10 mg/kg vs IV 3 mg/kg
Description: 6 male Sprague-Dawley rats (7-8 weeks old, and weighing approximately 210 g) were divided into 2 groups with 3 rats in each group. The rats were intravenously or orally administered a single dose of compounds (3 mg/kg intravenously, 10 mg/kg orally) to compare pharmacokinetic differences.
The rats were feeded on standard food and water. Fasting was started 16 hours before the test. The drug was dissolved in PEG400 and dimethyl sulfoxide. The blood samples were collected from eyelids at the time points of 0.083 hour, 0.25 hour, 0.5 hour, 1 hour, 2 hours, 4 hours, 6 hours, 8 hours, 12 hours, and 24 hours after administration.
Rats were briefly anesthetized after inhalation of diethyl ether and 300 μL of blood sample was collected from the eyelids into test tubes. There was 30 μL of 1% heparin salt solution in the test tube. Tubes were dried at 60° C. overnight before use. After the blood sample was collected at the last time point, the rats were sacrificed after ether anesthesia.
Immediately after the collection of the blood sample, the test tube was gently inverted at least 5 times to ensure sufficient mixing and then placed on ice. The blood sample was centrifuged at 5000 rpm at 4° C. for 5 minutes to separate the plasma from the red blood cells. 100 μL of plasma was aspirated into a clean plastic centrifuge tube with a pipette, marking with the name of the compound and time point. Plasma was stored at −80° C. prior to analysis. The concentration of the compound of the present disclosure in plasma was determined by LC-MS/MS. The pharmacokinetic parameters were calculated based on the blood concentration of the drug for each animal at different time points.

Sequence of TRKA kinase (P04629 33-796): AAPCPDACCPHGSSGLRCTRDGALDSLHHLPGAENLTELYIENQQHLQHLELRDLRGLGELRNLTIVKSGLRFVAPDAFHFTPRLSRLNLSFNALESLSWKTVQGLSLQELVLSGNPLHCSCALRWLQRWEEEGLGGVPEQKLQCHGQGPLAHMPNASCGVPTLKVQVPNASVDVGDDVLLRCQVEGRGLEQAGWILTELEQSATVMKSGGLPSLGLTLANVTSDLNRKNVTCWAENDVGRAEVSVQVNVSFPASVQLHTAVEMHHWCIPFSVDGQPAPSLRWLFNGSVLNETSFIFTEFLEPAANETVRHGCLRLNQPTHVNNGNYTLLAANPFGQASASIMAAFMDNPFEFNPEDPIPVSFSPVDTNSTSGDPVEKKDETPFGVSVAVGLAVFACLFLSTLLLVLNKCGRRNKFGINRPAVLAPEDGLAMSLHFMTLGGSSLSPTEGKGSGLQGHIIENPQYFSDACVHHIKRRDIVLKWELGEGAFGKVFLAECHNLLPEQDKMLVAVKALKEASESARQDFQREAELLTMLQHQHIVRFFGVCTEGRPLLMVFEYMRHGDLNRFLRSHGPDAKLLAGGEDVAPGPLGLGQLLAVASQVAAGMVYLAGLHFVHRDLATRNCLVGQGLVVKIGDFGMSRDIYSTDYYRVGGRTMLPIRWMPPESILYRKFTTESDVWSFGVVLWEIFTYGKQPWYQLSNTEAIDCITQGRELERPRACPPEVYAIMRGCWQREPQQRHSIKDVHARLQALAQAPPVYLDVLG

SMILES	IC50 (TRKA kinase) [nM]	IC50 (TRKB kinase) [nM]	IC50 (TRKC kinase) [nM]	AUC(0-t) ([1]; IV 3 mg/kg) [ng·h/mL]	Cmax ([1]; IV 3 mg/kg) [ng/mL]	Tmax ([1]; IV 3 mg/kg) [h]	half-life ([1]; IV 3 mg/kg) [h]	AUC(0-inf) ([1]; IV 3 mg/kg) [ng·h/mL]	MRT inf ([1]; IV 3 mg/kg) [h]	AUC(0-t) ([1]; PO 10 mg/kg) [ng·h/mL]	Cmax ([1]; PO 10 mg/kg) [ng/mL]	Tmax ([1]; PO 10 mg/kg) [h]	half-life ([1]; PO 10 mg/kg) [h]	bioavailability [1] [%]	AUC(0-inf) ([1]; PO 10 mg/kg) [ng·h/mL]	MRT inf ([1]; PO 10 mg/kg) [h]	Vz_pred ([1]; IV 3 mg/kg) [L/kg]	Vz_pred ([1]; PO 10 mg/kg) [L/kg]	IC50 (KM12 cell line) [nM]	further results
C[C@@H]1Nc2ccn3ncc(c3n2)NC(=O)C[C@H](C)Oc2ccc(F)cc21 [Compound T-2-B, (7S,13S)-11-fluoro-7,13-dimethyl-6,7,13,14-tetrahydro-1,15-ethenopyrazolo[4,3-f][1,4,8,10]benzoxatriazacyclotidecin-5(6H)-one]	0.36	0.09	0.09	–	–	–	–	–	–	–	–	–	–	–	–	–	–	–	4.79	–
O=C1CCOc2ccc(F)cc2[C@@H]2CCCN2c2ccn3ncc(c3n2)N1 [Compound L-1-B, (6S)-9-fluoro-13-oxa-2,17,20,21,24-pentaazapentacyclo[16.5.2.0^2,6.0^7,12.0^21,25]pentacosane-1(24),7,9,11,18(25),19,22-heptaene-16-one]	21.1	15.5	14.2	–	–	–	–	–	–	–	–	–	–	–	–	–	–	–	162	–
O=C1CCOc2ccc(F)cc2[C@H]2CCCN2c2ccn3ncc(c3n2)N1 [Compound L-1-A, (6R)-9-fluoro-13-oxa-2,7,20,21,24-pentaazapentacyclo[16.5.2.0^26.0^7,12.0^21,25]pentacosane-1(24),7,9,11,18(25),19,22-heptaene-16-one]	0.18	0.1	0.14	5010	2160	0.08	2.2	5030	2.18	11300	1490	1.58	5.77	67.9	11300	4.9	1.75	2.92	0.55	Cl_pred (L/kg) ([1]; IV 3 mg/kg): 0.60; Cl_pred (L/kg) ([1]; PO 10 mg/kg): 0.92
O=C1CCOc2ccc(F)cc2C2CCCN2c2ccn3ncc(c3n2)N1 (racemic) [Compound 9a, 9-fluoro-13-oxa-2,17,20,21,24-pentaazapentacyclo[16.5.2.0^2,6.0^7,12.0^21,25]pentacosane-1(24),7,9,11,18(25),19,22-heptaene-16-one]	0.17	0.1	0.1	–	–	–	–	–	–	–	–	–	–	–	–	–	–	–	1.78	–
CC1(C)COc2ccc(F)cc2[C@@H]2CCCN2c2ccn3ncc(c3n2)NC1=O [Compound L-3-B, (6S)-9-fluoro-15,15-dimethyl-13-oxa-2,17,20,21,24-pentaazapentacyclo[16.5.2.0^2,6.0^7,12.0^21,25]pentacosane-1(24),7,9,11,18(25),19,22-heptaene-16-one]	> 100	70.8	> 100	–	–	–	–	–	–	–	–	–	–	–	–	–	–	–	–	–
C[C@H]1CC(=O)Nc2cnn3ccc(nc23)N2CCC[C@@H]2c2cc(F)ccc2O1 [Compound L-2-A, (6R,14S)-9-fluoro-14-methyl-13-oxa-2,17,20,21,24-pentaazapentacyclo[16.5.2.0^2,6.0^7,12.0^21,25]pentacosane-1(24),7,9,11,18(25),19,22-heptaene-16-one]	0.17	0.1	0.1	2480	1620	0.08	2.41	2480	1.2	4470	1410	0.5	2.02	54.2	4530	2.8	1.85	8.50	0.25	Cl_pred (L/kg) ([1]; IV 3 mg/kg): 1.23; Cl_pred (L/kg) ([1]; PO 10 mg/kg): 2.44
C[C@H]1CC(=O)Nc2cnn3ccc(nc23)N2CCC[C@H]2c2cc(F)ccc2O1 [Compound L-2-B, (6S,14S)-9-fluoro-14-methyl-13-oxa-2,17,20,21,24-pentaazapentacyclo[16.5.2.0^2,6.0^7,12.0^21,25]pentacosane-1(24),7,9,11,18(25),19,22-heptaene-16-one]	0.41	0.13	0.18	–	–	–	–	–	–	–	–	–	–	–	–	–	–	–	0.65	–

Now from value to compound, other results behind:

IC50 (TRKA kinase) [nM]	IC50 (TRKB kinase) [nM]	IC50 (TRKC kinase) [nM]	AUC(0-t) ([1]; IV 3 mg/kg) [ng·h/mL]	Cmax ([1]; IV 3 mg/kg) [ng/mL]	Tmax ([1]; IV 3 mg/kg) [h]	half-life ([1]; IV 3 mg/kg) [h]	AUC(0-inf) ([1]; IV 3 mg/kg) [ng·h/mL]	MRT inf ([1]; IV 3 mg/kg) [h]	AUC(0-t) ([1]; PO 10 mg/kg) [ng·h/mL]	Cmax ([1]; PO 10 mg/kg) [ng/mL]	Tmax ([1]; PO 10 mg/kg) [h]	half-life ([1]; PO 10 mg/kg) [h]	bioavailability [1] [%]	AUC(0-inf) ([1]; PO 10 mg/kg) [ng·h/mL]	MRT inf ([1]; PO 10 mg/kg) [h]	Vz_pred ([1]; IV 3 mg/kg) [L/kg]	Vz_pred ([1]; PO 10 mg/kg) [L/kg]	SMILES	IC50 (KM12 cell line) [nM]	further results
–	–	–	4670	5010	0.08	1.45	4670	0.54	4070	1660	0.33	4.11	26.2	4090	2.31	0.75	5.13	C[C@@H]1CCc2ncc(F)cc2[C@H]2CCCN2c2ccn3ncc(c3n2)C(=O)N1 [LOXO-195, reference compound]	2.73	–
93.9	225	258	–	–	–	–	–	–	–	–	–	–	–	–	–	–	–	C[C@H]1Nc2ccn3ncc(c3n2)NC(=O)NCCCc2ccc(F)cc21 [Compound T-5, (14R)-12-fluoro-14-methyl-5,6,7,8,14,15-hexahydro-1,16-ethenopyrazolo[4,3-g][1,4,9,11]benzodioadiazatridecin-5(6H)-one]	–	–
4.91	5.31	5.41	–	–	–	–	–	–	–	–	–	–	–	–	–	–	–	C[C@H]1Nc2ccn3ncc(c3n2)NC(=O)NCCOc2ccc(F)cc21 [Compound T-4, (14R)-12-fluoro-14-methyl-5,6,7,8,14,15-hexahydro-1,16-ethenopyrazolo[4,3-g][1,4,9,11]benzoxatetraazacyclotetradecin-5(6H)-one]	–	–
< 0.17	< 0.17	< 0.17	6240	2120	0.08	9.05	6350	4.04	11500	1860	1.67	0.36	55.5	13100	6.23	3.28	10.05	C[C@H]1Nc2ccn3ncc(c3n2)NC(=O)CCOc2ccc(F)cc21 [Compound T-1, (13R)-11-fluoro-13-methyl-6,7,13,14-tetrahydro-1,15-ethenopyrazolo[4,3-f][1,4,8,10]benzoxatriazacyclotridecin-5(6H)-one]	5.13	Cl_pred (L/kg) ([1]; IV 3 mg/kg): 0.47; Cl_pred (L/kg) ([1]; PO 10 mg/kg): 0.77
–	–	–	3560	2190	0.08	5.77	3580	1.76	5470	732	1.67	0.76	46.1	5590	5.42	4.46	15.81	C[C@H]1CNC(=O)c2cnn3ccc(nc23)N[C@H](C)c2cc(F)ccc2O1 [TPX-0005, reference compound]	1.97	–
0.34	0.57	0.52	–	–	–	–	–	–	–	–	–	–	–	–	–	–	–	C[C@H]1Nc2ccn3ncc(c3n2)NC(=O)C(C)(C)COc2ccc(F)cc21 [Compound T-3]	–	–
